Laboratory results published in patent US11623919B2, “Heterocyclic P2X7 antagonists” (AXXAM S.P.A., priority 2017, dated 2023).

Experiments:
Experiment in all cases: Screen Quest Fluo-8 No Wash Calcium Assay (Bz-ATP evoked Ca2+ influx, FLIPR)
Type in all cases: cell-based
[1] = target: T1, P2X7 receptor (Mus musculus, UniProt Q9Z1M0); conditions: mP2X7; HEK-293 cells stably transfected with P2X7 receptor, Bz-ATP at EC80, Fluo-8 NW; potency ranges A-D
T1 construct: mP2X7 (IC50; nM); other: mP2X7; HEK-293 cells stably transfected with P2X7 receptor, Bz-ATP at EC80, Fluo-8 NW; potency
T1 sequence (Q9Z1M0 1-595): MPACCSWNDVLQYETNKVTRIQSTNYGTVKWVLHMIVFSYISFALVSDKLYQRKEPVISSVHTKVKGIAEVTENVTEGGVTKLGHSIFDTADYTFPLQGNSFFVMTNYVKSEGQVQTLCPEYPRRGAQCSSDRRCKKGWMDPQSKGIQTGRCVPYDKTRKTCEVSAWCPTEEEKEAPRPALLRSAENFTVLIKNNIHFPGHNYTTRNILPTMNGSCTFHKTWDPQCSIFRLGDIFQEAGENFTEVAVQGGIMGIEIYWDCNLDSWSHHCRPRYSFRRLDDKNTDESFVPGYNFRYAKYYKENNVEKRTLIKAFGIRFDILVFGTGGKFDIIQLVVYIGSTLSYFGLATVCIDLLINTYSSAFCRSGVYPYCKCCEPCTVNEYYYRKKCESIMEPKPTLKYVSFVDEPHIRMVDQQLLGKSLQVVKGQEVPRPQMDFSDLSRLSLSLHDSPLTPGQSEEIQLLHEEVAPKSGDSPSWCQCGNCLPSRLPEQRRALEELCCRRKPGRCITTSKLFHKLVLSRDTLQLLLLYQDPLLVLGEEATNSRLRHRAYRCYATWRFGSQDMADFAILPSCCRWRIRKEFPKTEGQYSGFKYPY
Summary of the method: (§1)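 Compounds were added to Fluo-8-loaded P2X7-transfected HEK-293 cells 5 min before an EC80 Bz-ATP challenge, and Ca2+ influx was then recorded for 3 min. Buffer held 0.3 mM Ca2+ and no Mg2+. Inhibition was normalised to A438079, giving IC50 values.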

[2] = target: T2, P2X7 receptor (Rattus norvegicus, UniProt Q64663); conditions: rP2X7; HEK-293 cells stably transfected with P2X7 receptor, Bz-ATP at EC80, Fluo-8 NW; potency ranges A-D
T2 construct: rP2X7 (IC50; nM); other: rP2X7; HEK-293 cells stably transfected with P2X7 receptor, Bz-ATP at EC80, Fluo-8 NW; potency
T2 sequence (Q64663 1-595): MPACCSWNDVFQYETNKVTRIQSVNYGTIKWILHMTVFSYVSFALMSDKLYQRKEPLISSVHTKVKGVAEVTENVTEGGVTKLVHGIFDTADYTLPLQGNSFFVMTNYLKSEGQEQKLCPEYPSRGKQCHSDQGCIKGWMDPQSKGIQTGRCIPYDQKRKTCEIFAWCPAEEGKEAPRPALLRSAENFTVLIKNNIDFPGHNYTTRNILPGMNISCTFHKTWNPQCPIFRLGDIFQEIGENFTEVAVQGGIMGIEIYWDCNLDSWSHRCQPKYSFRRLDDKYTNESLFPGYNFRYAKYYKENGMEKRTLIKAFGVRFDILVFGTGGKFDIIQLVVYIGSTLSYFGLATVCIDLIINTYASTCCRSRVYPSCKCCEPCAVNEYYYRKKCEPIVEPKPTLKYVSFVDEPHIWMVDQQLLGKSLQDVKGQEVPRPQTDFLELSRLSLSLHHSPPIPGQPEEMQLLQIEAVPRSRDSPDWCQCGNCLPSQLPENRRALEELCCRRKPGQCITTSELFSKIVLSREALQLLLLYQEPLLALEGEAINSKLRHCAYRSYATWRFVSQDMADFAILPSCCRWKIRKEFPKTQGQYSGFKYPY
Summary of the method: as §1

[3] = target: T3, P2X7 receptor (Homo sapiens, UniProt Q99572); design: hP2X7 (IC50; nM); other: hP2X7; HEK-293 cells stably transfected with P2X7 receptor, Bz-ATP at EC80, Fluo-8 NW; potency; conditions: hP2X7; HEK-293 cells stably transfected with P2X7 receptor, Bz-ATP at EC80, Fluo-8 NW; potency ranges A-D
T3 sequence (Q99572 1-595): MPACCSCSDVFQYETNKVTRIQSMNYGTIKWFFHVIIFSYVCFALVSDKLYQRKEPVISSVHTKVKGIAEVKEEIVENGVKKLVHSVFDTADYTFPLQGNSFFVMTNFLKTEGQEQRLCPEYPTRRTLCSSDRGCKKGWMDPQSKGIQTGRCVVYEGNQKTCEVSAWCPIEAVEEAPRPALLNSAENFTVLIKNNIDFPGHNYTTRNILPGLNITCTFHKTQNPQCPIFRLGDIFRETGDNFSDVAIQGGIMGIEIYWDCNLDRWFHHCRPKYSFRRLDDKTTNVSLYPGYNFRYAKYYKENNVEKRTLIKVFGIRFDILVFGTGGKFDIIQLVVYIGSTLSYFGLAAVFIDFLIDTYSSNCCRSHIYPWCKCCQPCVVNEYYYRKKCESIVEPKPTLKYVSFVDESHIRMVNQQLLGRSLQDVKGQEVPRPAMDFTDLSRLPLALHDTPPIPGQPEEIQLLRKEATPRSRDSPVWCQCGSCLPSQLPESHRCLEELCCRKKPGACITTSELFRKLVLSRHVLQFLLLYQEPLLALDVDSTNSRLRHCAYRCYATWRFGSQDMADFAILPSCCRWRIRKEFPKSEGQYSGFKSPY
Summary of the method: as §1

IC50 [1] [nM]	IC50 [2] [nM]	IC50 [3] [nM]	Structure (SMILES)
> 10000	1000 to 10000	> 10000	O=c1onc(CN2CCCCC2)n1Cc1ccc(F)cc1 [Example 240, 4-[(4-fluorophenyl)methyl]-3-(piperidin-1-ylmethyl)-4,5-dihydro-1,2,4-oxadiazol-5-one]
1000 to 10000	1000 to 10000	1000 to 10000	O=c1onc(Cc2c(F)cccc2Cl)n1Cc1ccccc1F [Example 56, 3-[(2-chloro-6-fluorophenyl)methyl]-4-[(2-fluorophenyl)methyl]-4,5-dihydro-1,2,4-oxadiazol-5-one]
> 10000	> 10000	> 10000	O=c1onc(Cc2c(F)cccc2Cl)n1Cc1ncccn1 [Example 39, 3-[(2-chloro-6-fluorophenyl)methyl]-4-(pyrimidin-2-ylmethyl)-4,5-dihydro-1,2,4-oxadiazol-5-one]
< 200	< 200	< 200	O=c1onc(Cc2c(F)cccc2Cl)n1CC1CCC(C(F)(F)F)CC1 (stereo not drawn) [Example 184, 3-[(2-chloro-6-fluorophenyl)methyl]-4-{[4-(trifluoromethyl)cyclohexyl]methyl}-1,2,4-oxadiazol-5(4H)-one]
> 10000	> 10000	> 10000	Cc1nnc(Cn2c(Cc3c(F)cccc3Cl)noc2=O)o1 [Example 41, 3-[(2-chloro-6-fluorophenyl)methyl]-4-[(5-methyl-1,3,4-oxadiazol-2-yl)methyl]-4,5-dihydro-1,2,4-oxadiazol-5-one]
1000 to 10000	1000 to 10000	> 10000	O=c1onc(CN2CCC(F)(F)CC2)n1CC1CCCCC1 [Example 222, 4-(cyclohexylmethyl)-3-[(4,4-difluoropiperidin-1-yl)methyl]-4,5-dihydro-1,2,4-oxadiazol-5-one]
> 10000	> 10000	> 10000	Cc1noc(Cn2c(CC3CCC(F)(F)CC3)noc2=O)n1 [Example 197, 3-[(4,4-difluorocyclohexyl)methyl]-4-[(3-methyl-1,2,4-oxadiazol-5-yl)methyl]-1,2,4-oxadiazol-5(4H)-one]
1000 to 10000	200 to 1000	< 200	Cc1nn(C)c(C)c1Cc1noc(=O)n1CC1CCCCC1 [Example 214, 4-(cyclohexylmethyl)-3-[(trimethyl-1H-pyrazol-4-yl)methyl]-4,5-dihydro-1,2,4-oxadiazol-5-one]
1000 to 10000	200 to 1000	200 to 1000	O=c1onc(Cc2cccc(F)c2)n1CC1CCC(F)(F)CC1 [Example 151, 4-[(4,4-difluorocyclohexyl)methyl]-3-[(3-fluorophenyl)methyl]-4,5-dihydro-1,2,4-oxadiazol-5-one]
> 10000	> 10000	1000 to 10000	CC(C)Cn1c(Cc2c(F)cccc2Cl)noc1=O [Example 178, 3-[(2-chloro-6-fluorophenyl)methyl]-4-(2-methylpropyl)-4,5-dihydro-1,2,4-oxadiazol-5-one]
> 10000	> 10000	> 10000	Cn1ccnc1Cn1c(Cc2c(F)cccc2Cl)noc1=O [Example 47, 3-[(2-chloro-6-fluorophenyl)methyl]-4-[(1-methyl-1H-imidazol-2-yl)methyl]-4,5-dihydro-1,2,4-oxadiazol-5-one]
> 10000	1000 to 10000	1000 to 10000	O=c1onc(CCc2c(F)cccc2Cl)n1CC1CCCCC1 [Example 146, 3-[2-(2-chloro-6-fluorophenyl)ethyl]-4-(cyclohexylmethyl)-1,2,4-oxadiazol-5(4H)-one]
1000 to 10000	1000 to 10000	> 10000	O=c1onc(CN2CCC(F)(F)CC2)n1Cc1ccc(F)cc1 [Example 221, 3-[(4,4-difluoropiperidin-1-yl)methyl]-4-[(4-fluorophenyl)methyl]-4,5-dihydro-1,2,4-oxadiazol-5-one]
